Assay results reported in the supplement of paper PMC10307832.

How the values were obtained:
Assay in all cases: relative viability (nuclei count vs DMSO), 5 days (fraction); higher = more cells survive
NCI-H1792 = system: NCI-H1792
Procedure, shortened: (§1)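 Lung cancer cell lines in 1536-well plates got either a single drug or a fixed anchor-drug dose together with five library-drug doses (not always all listed) in √10 steps, by pin tool, on the day after seeding. Nuclei were counted after 5 days, and relative viability is the treated-to-vehicle ratio of nuclei counts. Values are medians of duplicate plates.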

NCI-H1395 = system: NCI-H1395
Procedure, shortened: as §1

NCI-H2126 = system: NCI-H2126
Procedure, shortened: as §1

NCI-H1944 = system: NCI-H1944
Procedure, shortened: as §1

CAL-12T = system: CAL-12T
Procedure, shortened: as §1

RERF-LC-KJ = system: RERF-LC-KJ
Procedure, shortened: as §1

LXF-289 = system: LXF-289
Procedure, shortened: as §1

LCLC-103H = system: LCLC-103H
Procedure, shortened: as §1

LU99A = system: LU99A
Procedure, shortened: as §1

HCC-827 = system: HCC-827
Procedure, shortened: as §1

NCI-H1666 = system: NCI-H1666
Procedure, shortened: as §1

NCI-H2347 = system: NCI-H2347
Procedure, shortened: as §1

NCI-H358 = system: NCI-H358
Procedure, shortened: as §1

NCI-H3122 = system: NCI-H3122
Procedure, shortened: as §1

ABC-1 = system: ABC-1
Procedure, shortened: as §1

ChaGo-K-1 = system: ChaGo-K-1
Procedure, shortened: as §1

NCI-H1793 = system: NCI-H1793
Procedure, shortened: as §1

HCC-44 = system: HCC-44
Procedure, shortened: as §1

NCI-H322M = system: NCI-H322M
Procedure, shortened: as §1

SK-LU-1 = system: SK-LU-1
Procedure, shortened: as §1

NCI-H520 = system: NCI-H520
Procedure, shortened: as §1

NCI-H1755 = system: NCI-H1755
Procedure, shortened: as §1

CN1CCN(CCOc2cc(OC3CCOCC3)c3c(Nc4c(Cl)ccc5c4OCO5)ncnc3c2)CC1 [Saracatinib] + CCNC(=O)c1noc(-c2cc(C(C)C)c(O)cc2O)c1-c1ccc(CN2CCOCC2)cc1 [Luminespib] (partner 0.01 µM)
relative viability (NCI-H1792; first compound 0.02 µM): 0.369
relative viability (NCI-H1792; first compound 0.2 µM): 0.463
relative viability (NCI-H1792; first compound 0.6325 µM): 0.449
relative viability (NCI-H1792; first compound 2 µM): 0.358
relative viability (NCI-H1395; first compound 0.02 µM): 0.621
relative viability (NCI-H1395; first compound 0.2 µM): 0.634
relative viability (NCI-H1395; first compound 0.6325 µM): 0.79
relative viability (NCI-H1395; first compound 2 µM): 0.62
relative viability (NCI-H2126; first compound 0.02 µM): 0.878
relative viability (NCI-H2126; first compound 0.2 µM): 0.895
relative viability (NCI-H2126; first compound 0.6325 µM): 0.852
relative viability (NCI-H2126; first compound 2 µM): 0.655
relative viability (NCI-H1944; first compound 0.02 µM): 0.826
relative viability (NCI-H1944; first compound 0.6325 µM): 0.846
relative viability (NCI-H1944; first compound 2 µM): 0.459
relative viability (CAL-12T; first compound 0.02 µM): 0.335
relative viability (CAL-12T; first compound 0.2 µM): 0.407
relative viability (CAL-12T; first compound 0.6325 µM): 0.365
relative viability (CAL-12T; first compound 2 µM): 0.268
relative viability (RERF-LC-KJ; first compound 0.02 µM): 1.27
relative viability (RERF-LC-KJ; first compound 0.2 µM): 1.38
relative viability (RERF-LC-KJ; first compound 0.6325 µM): 1.29
relative viability (RERF-LC-KJ; first compound 2 µM): 1.16
relative viability (LXF-289; first compound 0.02 µM): 0.619
relative viability (LXF-289; first compound 0.2 µM): 0.633
relative viability (LXF-289; first compound 0.6325 µM): 0.796
relative viability (LXF-289; first compound 2 µM): 0.585
relative viability (LCLC-103H; first compound 0.02 µM): 1.02
relative viability (LCLC-103H; first compound 0.2 µM): 0.902
relative viability (LCLC-103H; first compound 0.6325 µM): 0.975
relative viability (LCLC-103H; first compound 2 µM): 0.9
relative viability (LU99A; first compound 0.02 µM): 0.214
relative viability (LU99A; first compound 0.2 µM): 0.203
relative viability (LU99A; first compound 0.6325 µM): 0.26
relative viability (LU99A; first compound 2 µM): 0.232
relative viability (HCC-827; first compound 0.02 µM): 0.709
relative viability (HCC-827; first compound 0.2 µM): 0.311
relative viability (HCC-827; first compound 0.6325 µM): 0.241
relative viability (HCC-827; first compound 2 µM): 0.136
relative viability (NCI-H1666; first compound 0.02 µM): 1.01
relative viability (NCI-H1666; first compound 0.2 µM): 1.09
relative viability (NCI-H1666; first compound 0.6325 µM): 1.4
relative viability (NCI-H1666; first compound 2 µM): 1.15
relative viability (NCI-H2347; first compound 0.02 µM): 0.372
relative viability (NCI-H2347; first compound 0.2 µM): 0.411
relative viability (NCI-H2347; first compound 0.6325 µM): 0.774
relative viability (NCI-H2347; first compound 2 µM): 0.416
relative viability (NCI-H358; first compound 0.02 µM): 0.174
relative viability (NCI-H358; first compound 0.2 µM): 0.208
relative viability (NCI-H358; first compound 0.6325 µM): 0.309
relative viability (NCI-H358; first compound 2 µM): 0.318
relative viability (NCI-H3122; first compound 0.02 µM): 0.0855
relative viability (NCI-H3122; first compound 0.2 µM): 0.103
relative viability (NCI-H3122; first compound 0.6325 µM): 0.0549
relative viability (NCI-H3122; first compound 2 µM): 0.076
relative viability (ABC-1; first compound 0.02 µM): 0.721
relative viability (ABC-1; first compound 0.2 µM): 0.43
relative viability (ABC-1; first compound 0.6325 µM): 0.599
relative viability (ABC-1; first compound 2 µM): 0.766
relative viability (ChaGo-K-1; first compound 0.02 µM): 0.663
relative viability (ChaGo-K-1; first compound 0.2 µM): 0.388
relative viability (ChaGo-K-1; first compound 0.6325 µM): 0.7
relative viability (ChaGo-K-1; first compound 2 µM): 0.555
relative viability (NCI-H1793; first compound 0.02 µM): 0.2
relative viability (NCI-H1793; first compound 0.6325 µM): 0.173
relative viability (NCI-H1793; first compound 2 µM): 0.177
relative viability (HCC-44; first compound 0.02 µM): 0.972
relative viability (HCC-44; first compound 0.2 µM): 0.921
relative viability (HCC-44; first compound 0.6325 µM): 1.32
relative viability (HCC-44; first compound 2 µM): 0.952
relative viability (NCI-H322M; first compound 0.02 µM): 0.867
relative viability (NCI-H322M; first compound 0.2 µM): 0.711
relative viability (NCI-H322M; first compound 0.6325 µM): 0.682
relative viability (NCI-H322M; first compound 2 µM): 0.378
relative viability (SK-LU-1; first compound 0.02 µM): 0.232
relative viability (SK-LU-1; first compound 0.2 µM): 0.139
relative viability (SK-LU-1; first compound 0.6325 µM): 0.145
relative viability (SK-LU-1; first compound 2 µM): 0.129
relative viability (NCI-H520; first compound 0.02 µM): 0.213
relative viability (NCI-H520; first compound 0.6325 µM): 0.221
relative viability (NCI-H520; first compound 2 µM): 0.204
relative viability (NCI-H1755; first compound 0.02 µM): 0.456
relative viability (NCI-H1755; first compound 0.2 µM): 0.329
relative viability (NCI-H1755; first compound 0.6325 µM): 0.447
relative viability (NCI-H1755; first compound 2 µM): 0.414

CN1CCN(CCOc2cc(OC3CCOCC3)c3c(Nc4c(Cl)ccc5c4OCO5)ncnc3c2)CC1 [Saracatinib] + N=C(N)NC(=N)NCCc1ccccc1 [Phenformin] (partner 250 µM)
relative viability (NCI-H1792; first compound 0.02 µM): 0.258
relative viability (NCI-H1792; first compound 0.2 µM): 0.167
relative viability (NCI-H1792; first compound 0.6325 µM): 0.241
relative viability (NCI-H1792; first compound 2 µM): 0.405
relative viability (NCI-H1395; first compound 0.02 µM): 0.434
relative viability (NCI-H1395; first compound 0.2 µM): 0.455
relative viability (NCI-H1395; first compound 0.6325 µM): 0.474
relative viability (NCI-H1395; first compound 2 µM): 0.348
relative viability (NCI-H2126; first compound 0.02 µM): 0.537
relative viability (NCI-H2126; first compound 0.2 µM): 0.522
relative viability (NCI-H2126; first compound 0.6325 µM): 0.524
relative viability (NCI-H2126; first compound 2 µM): 0.473
relative viability (NCI-H1944; first compound 0.02 µM): 0.227
relative viability (NCI-H1944; first compound 0.6325 µM): 0.161
relative viability (NCI-H1944; first compound 2 µM): 0.141
relative viability (CAL-12T; first compound 0.02 µM): 0.608
relative viability (CAL-12T; first compound 0.2 µM): 0.639
relative viability (CAL-12T; first compound 0.6325 µM): 0.595
relative viability (CAL-12T; first compound 2 µM): 0.506
relative viability (RERF-LC-KJ; first compound 0.02 µM): 0.445
relative viability (RERF-LC-KJ; first compound 0.2 µM): 0.401
relative viability (RERF-LC-KJ; first compound 0.6325 µM): 0.313
relative viability (RERF-LC-KJ; first compound 2 µM): 0.361
relative viability (LXF-289; first compound 0.02 µM): 0.546
relative viability (LXF-289; first compound 0.2 µM): 0.486
relative viability (LXF-289; first compound 0.6325 µM): 0.506
relative viability (LXF-289; first compound 2 µM): 0.458
relative viability (LCLC-103H; first compound 0.02 µM): 0.337
relative viability (LCLC-103H; first compound 0.2 µM): 0.354
relative viability (LCLC-103H; first compound 0.6325 µM): 0.37
relative viability (LCLC-103H; first compound 2 µM): 0.314
relative viability (LU99A; first compound 0.02 µM): 0.938
relative viability (LU99A; first compound 0.2 µM): 0.617
relative viability (LU99A; first compound 0.6325 µM): 0.879
relative viability (LU99A; first compound 2 µM): 0.707
relative viability (HCC-827; first compound 0.02 µM): 0.4
relative viability (HCC-827; first compound 0.2 µM): 0.221
relative viability (HCC-827; first compound 0.6325 µM): 0.134
relative viability (HCC-827; first compound 2 µM): 0.144
relative viability (NCI-H1666; first compound 0.02 µM): 0.562
relative viability (NCI-H1666; first compound 0.2 µM): 0.566
relative viability (NCI-H1666; first compound 0.6325 µM): 0.642
relative viability (NCI-H1666; first compound 2 µM): 0.588
relative viability (NCI-H2347; first compound 0.02 µM): 0.38
relative viability (NCI-H2347; first compound 0.2 µM): 0.26
relative viability (NCI-H2347; first compound 0.6325 µM): 0.377
relative viability (NCI-H2347; first compound 2 µM): 0.342
relative viability (NCI-H358; first compound 0.02 µM): 0.37
relative viability (NCI-H358; first compound 0.2 µM): 0.298
relative viability (NCI-H358; first compound 0.6325 µM): 0.23
relative viability (NCI-H358; first compound 2 µM): 0.171
relative viability (NCI-H3122; first compound 0.02 µM): 0.385
relative viability (NCI-H3122; first compound 0.2 µM): 0.248
relative viability (NCI-H3122; first compound 0.6325 µM): 0.301
relative viability (NCI-H3122; first compound 2 µM): 0.285
relative viability (ABC-1; first compound 0.02 µM): 0.251
relative viability (ABC-1; first compound 0.2 µM): 0.238
relative viability (ABC-1; first compound 0.6325 µM): 0.231
relative viability (ABC-1; first compound 2 µM): 0.215
relative viability (ChaGo-K-1; first compound 0.02 µM): 0.564
relative viability (ChaGo-K-1; first compound 0.2 µM): 0.314
relative viability (ChaGo-K-1; first compound 0.6325 µM): 0.447
relative viability (ChaGo-K-1; first compound 2 µM): 0.381
relative viability (NCI-H1793; first compound 0.02 µM): 0.439
relative viability (NCI-H1793; first compound 0.6325 µM): 0.308
relative viability (NCI-H1793; first compound 2 µM): 0.263
relative viability (HCC-44; first compound 0.02 µM): 0.316
relative viability (HCC-44; first compound 0.2 µM): 0.227
relative viability (HCC-44; first compound 0.6325 µM): 0.333
relative viability (HCC-44; first compound 2 µM): 0.199
relative viability (NCI-H322M; first compound 0.02 µM): 0.708
relative viability (NCI-H322M; first compound 0.2 µM): 0.694
relative viability (NCI-H322M; first compound 0.6325 µM): 0.55
relative viability (NCI-H322M; first compound 2 µM): 0.334
relative viability (SK-LU-1; first compound 0.02 µM): 0.474
relative viability (SK-LU-1; first compound 0.2 µM): 0.351
relative viability (SK-LU-1; first compound 0.6325 µM): 0.25
relative viability (SK-LU-1; first compound 2 µM): 0.209
relative viability (NCI-H520; first compound 0.02 µM): 0.687
relative viability (NCI-H520; first compound 0.6325 µM): 0.441
relative viability (NCI-H520; first compound 2 µM): 0.291
relative viability (NCI-H1755; first compound 0.02 µM): 0.665
relative viability (NCI-H1755; first compound 0.2 µM): 0.484
relative viability (NCI-H1755; first compound 0.6325 µM): 0.597
relative viability (NCI-H1755; first compound 2 µM): 0.478
